Source: patent US4256632A, “Novel derivatives of daunomycin” (Yeda Research and Development Co. Ltd., priority 1978, dated 1981)
“Also recorded” adds a separate entry of the source.

Tested on: EL4 lymphoma
Assay: Repeated treatments of mice bearing ip EL4 lymphoma
Format: in vivo, C57BL/6 mice
Set-up: Median survival time: unit not given here
Details: for Median survival time: mice that died of the tumor; for Antitumor (curing) effect in words: injected intraperitoneally at different intervals after tumor cell innoculation; for Relative effectivity among derivatives: comparison in words
Method: Four to six weeks old C57BL/6 mice were innoculated with the ascite lymphoma tumor EL4.BU. Daunomycin and its derivatives were injected intraperitoneally at different intervals after tumor cell innoculation.
Some of the mice were totally cured, with no physical manifestation of any side effects of the tested derivatized daunomycin compounds.
10^6 EL4 lymphoma cells were innoculated ip into C57BL/6 males. Drug
administration started 2 days later.
*Refers to the group of mice that died of the tumor.

lysyl-daunomycin [Lys-DM] was tested. Which “Long time survivors (over 60 days)” value (200 μg/mouse, 4 injections ip) did it give?
Its value is 0.

What about the “Toxic deaths/No. mice treated” value (200 μg/mouse, 4 injections ip) of the same compound?
Its value is 0/8.

What about the Median survival time (200 μg/mouse, 4 injections ip) of the same compound?
The Median survival time was 28.

What about the “Long time survivors (over 60 days)” value (250 μg/mouse, 8 injections ip) of the same compound?
The value was 5.

And the “Toxic deaths/No. mice treated” value (250 μg/mouse, 8 injections ip)?
The value was 2/8.

And the Median survival time (250 μg/mouse, 8 injections ip)?
Its Median survival time is 26.

And the “Antitumor (curing) effect in words” value?
The value was “complete cure, or a significantly prolonged life span with no apparent toxic effects”.

Which “Long time survivors (over 60 days)” value (20 μg/mouse, 5 injections ip) does the source give for `COc1cccc2c1C(=O)c1c(O)c3c(c(O)c1C2=O)C[C@@](O)(C(C)=O)C[C@@H]3O[C@H]1C[C@H](N)[C@H](O)[C@H](C)O1` [Daunomycin, daunomycin] here?
The value was 1.

What about the “Toxic deaths/No. mice treated” value (20 μg/mouse, 5 injections ip) of the same compound?
The value was 1/8.

What about the Median survival time (20 μg/mouse, 5 injections ip) of the same compound?
Its Median survival time is 17.

What about the “Long time survivors (over 60 days)” value (20 μg/mouse, 6 injections ip) of the same compound?
Its value is 0.

What about the “Toxic deaths/No. mice treated” value (20 μg/mouse, 6 injections ip) of the same compound?
Its value is 4/8.

What about the Median survival time (20 μg/mouse, 6 injections ip) of the same compound?
Its Median survival time is 15.

And the “Long time survivors (over 60 days)” value (25 μg/mouse, 4 injections ip)?
Its value is 0.

And the “Toxic deaths/No. mice treated” value (25 μg/mouse, 4 injections ip)?
The value was 2/8.

What about the Median survival time (25 μg/mouse, 4 injections ip) of the same compound?
Its Median survival time is 14.5.

What about the “Long time survivors (over 60 days)” value (25 μg/mouse, 5 injections ip) of the same compound?
The value was 1.

And the “Toxic deaths/No. mice treated” value (25 μg/mouse, 5 injections ip)?
Its value is 2/8.

What about the Median survival time (25 μg/mouse, 5 injections ip) of the same compound?
Its Median survival time is 24.5.

What about the “Long time survivors (over 60 days)” value (30 μg/mouse, 4 injections ip) of the same compound?
Its value is 2.

What about the “Toxic deaths/No. mice treated” value (30 μg/mouse, 4 injections ip) of the same compound?
Its value is 4/8.

What about the Median survival time (30 μg/mouse, 4 injections ip) of the same compound?
Its Median survival time is 25.

And the “Long time survivors (over 60 days)” value (40 μg/mouse, 1 injection ip)?
The value was 0.

What about the “Toxic deaths/No. mice treated” value (40 μg/mouse, 1 injection ip) of the same compound?
The value was 2/8.

What about the Median survival time (40 μg/mouse, 1 injection ip) of the same compound?
Its Median survival time is 19.

What about the “Long time survivors (over 60 days)” value (40 μg/mouse, 4 injections ip) of the same compound?
Its value is 0.

What about the “Toxic deaths/No. mice treated” value (40 μg/mouse, 4 injections ip) of the same compound?
Its value is 4/8.

And the Median survival time (40 μg/mouse, 4 injections ip)?
Its Median survival time is 18.

And the “Long time survivors (over 60 days)” value (50 μg/mouse, 2 injections ip)?
The value was 0.

And the “Toxic deaths/No. mice treated” value (50 μg/mouse, 2 injections ip)?
The value was 2/8.

And the Median survival time (50 μg/mouse, 2 injections ip)?
The Median survival time was 19.

And the “Long time survivors (over 60 days)” value (60 μg/mouse, 1 injection ip)?
The value was 0.

What about the “Toxic deaths/No. mice treated” value (60 μg/mouse, 1 injection ip) of the same compound?
Its value is 6/8.

And the Median survival time (60 μg/mouse, 1 injection ip)?
The Median survival time was 18.

And the “Long time survivors (over 60 days)” value (80 μg/mouse, 1 injection ip)?
The value was 0.

And the “Toxic deaths/No. mice treated” value (80 μg/mouse, 1 injection ip)?
Its value is 8/8.

And the Median survival time (80 μg/mouse, 1 injection ip)?
Its Median survival time is 17.

What about the “Effects at high doses” value (doses exceeding 70 μg/mouse in a single injection, or lower doses in multiple injections) of the same compound?
Its value is “acute toxicity marked by a generally wasted appearance and death, to no efficient depression of the growing tumor”.

What about the “Antitumor (curing) effect in words” value of the same compound?
The value was “no satisfactory curing effects; also recorded: very narrow border-zone between excessive toxicity and poor curative efficiency”.

lysyl-leucyl-daunomycin was tested. Which “Relative effectivity among derivatives” value did it give?
The value was “more effective than leucyl-daunomycin”.

With `COc1cccc2c1C(=O)c1c(O)c3c(c(O)c1C2=O)C[C@@](O)(C(C)=O)C[C@@H]3O[C@H]1C[C@H](NC(=O)[C@@H](N)Cc2cnc[nH]2)[C@H](O)[C@H](C)O1` [histidyl-daunomycin] as the compound, how does the “Antitumor (curing) effect in words” value read?
The value was “complete cure, or a significantly prolonged life span with no apparent toxic effects”.

How did the “Long time survivors (over 60 days)” value (650 μg/mouse, 8 injections ip) turn out when `COc1cccc2c1C(=O)c1c(O)c3c(c(O)c1C2=O)C[C@@](O)(C(C)=O)C[C@@H]3OC1CC(NC(=O)C(N)CCN)C(O)C(C)O1.[Cl-].[Na+]` (some centres unmarked) [Dbu-DM, diaminobutyryl-daunomycin] was run?
Its value is 12.

What about the “Toxic deaths/No. mice treated” value (650 μg/mouse, 8 injections ip) of the same compound?
Its value is 0/14.

And the Median survival time (650 μg/mouse, 8 injections ip)?
Its Median survival time is 31.

And the “Antitumor (curing) effect in words” value?
Its value is “complete cure, or a significantly prolonged life span with no apparent toxic effects”.

With (ornithyl)2 -daunomycin [(Orn)2 -DM] as the compound, how does the “Long time survivors (over 60 days)” value (300 μg/mouse, 8 injections ip) read?
The value was 6.

And the “Toxic deaths/No. mice treated” value (300 μg/mouse, 8 injections ip)?
Its value is 1/8.

And the “Relative effectivity among derivatives” value?
The value was “much more effective than with ornithine”.

And the “Antitumor (curing) effect in words” value?
The value was “complete cure, or a significantly prolonged life span with no apparent toxic effects”.

What does the source list for `COc1cccc2c1C(=O)c1c(O)c3c(c(O)c1C2=O)C[C@@](O)(C(C)=O)C[C@@H]3O[C@H]1C[C@H](NC(=O)C(N)Cc2ccc(O)c(O)c2)[C@H](O)[C@H](C)O1` (some centres unmarked) [DOPA-DM, dihydroxyphenylalanyl-daunomycin]?
Long time survivors (over 60 days) (240 μg/mouse, 8 injections ip): 3; Toxic deaths/No. mice treated (240 μg/mouse, 8 injections ip): 0/4; Median survival time (240 μg/mouse, 8 injections ip): 28

How did the “Antitumor (curing) effect in words” value turn out when `COc1cccc2c1C(=O)c1c(O)c3c(c(O)c1C2=O)CC(O)(C(C)=O)CC3OC1CC(NC(=O)C(CCCNC(=N)N)NC(=O)C(N)CCCNC(=N)N)C(O)C(C)O1` (centres unmarked) [(arginyl)2 -daunomycin, arginyl-arginyl-daunomycin] was run?
Its value is “complete cure, or a significantly prolonged life span with no apparent toxic effects”.

What does the source list for `COc1cccc2c1C(=O)c1c(O)c3c(c(O)c1C2=O)C[C@@](O)(C(C)=O)C[C@@H]3O[C@H]1C[C@H](NC(=O)[C@H](CCCCN)NC(=O)[C@H](CCCCN)NC(=O)[C@@H](N)CCCCN)[C@H](O)[C@H](C)O1` [(Lys)3 -DM, (lysyl)3 -daunomycin]?
Long time survivors (over 60 days) (250 μg/mouse, 8 injections ip): 6; Toxic deaths/No. mice treated (250 μg/mouse, 8 injections ip): 1/8; Median survival time (250 μg/mouse, 8 injections ip): 25; Antitumor (curing) effect in words: complete cure, or a significantly prolonged life span with no apparent toxic effects

What does the source list for “(ornithyl)n -daunomycin where n=2 to 5 [(Orn)5 -DM]”?
Long time survivors (over 60 days) (300 μg/mouse, 8 injections ip): 2; Toxic deaths/No. mice treated (300 μg/mouse, 8 injections ip): 1/8; Median survival time (300 μg/mouse, 8 injections ip): 38

Which “Long time survivors (over 60 days)” value (250 μg/mouse, 7 injections ip) does the source give for arginyl-daunomycin [Arg-DM] here?
Its value is 3.

And the “Toxic deaths/No. mice treated” value (250 μg/mouse, 7 injections ip)?
Its value is 0/4.

And the Median survival time (250 μg/mouse, 7 injections ip)?
The Median survival time was 35.

What about the “Long time survivors (over 60 days)” value (400 μg/mouse, 6 injections ip) of the same compound?
The value was 3.

What about the “Toxic deaths/No. mice treated” value (400 μg/mouse, 6 injections ip) of the same compound?
Its value is 1/4.

Which “Long time survivors (over 60 days)” value (600 μg/mouse, 8 injections ip) does the source give for aspartyl-lysyl-daunomycin [Asp-Lys-DM] here?
The value was 6.

What about the “Toxic deaths/No. mice treated” value (600 μg/mouse, 8 injections ip) of the same compound?
Its value is 0/8.

And the Median survival time (600 μg/mouse, 8 injections ip)?
The Median survival time was 31.

What about the “Relative effectivity among derivatives” value of the same compound?
The value was “more effective than aspartyl-daunomycin”.

And the “Antitumor (curing) effect in words” value?
The value was “complete cure, or a significantly prolonged life span with no apparent toxic effects”.

With (lysyl)2 -daunomycin [(Lys)2 -DM] as the compound, how does the “Long time survivors (over 60 days)” value (250 μg/mouse, 8 injections ip) read?
The value was 6.

What about the “Toxic deaths/No. mice treated” value (250 μg/mouse, 8 injections ip) of the same compound?
Its value is 1/8.

What about the Median survival time (250 μg/mouse, 8 injections ip) of the same compound?
Its Median survival time is 24.

What about the “Antitumor (curing) effect in words” value of the same compound?
Its value is “complete cure, or a significantly prolonged life span with no apparent toxic effects”.
